Each structure is given as a SMILES string. pIC50, pKi: −log10 of the molar value.

Assay [1] addresses T1, Polyunsaturated fatty acid lipoxygenase ALOX15 (Oryctolagus cuniculus, UniProt P12530).
T1 sequence (P12530 whole entry): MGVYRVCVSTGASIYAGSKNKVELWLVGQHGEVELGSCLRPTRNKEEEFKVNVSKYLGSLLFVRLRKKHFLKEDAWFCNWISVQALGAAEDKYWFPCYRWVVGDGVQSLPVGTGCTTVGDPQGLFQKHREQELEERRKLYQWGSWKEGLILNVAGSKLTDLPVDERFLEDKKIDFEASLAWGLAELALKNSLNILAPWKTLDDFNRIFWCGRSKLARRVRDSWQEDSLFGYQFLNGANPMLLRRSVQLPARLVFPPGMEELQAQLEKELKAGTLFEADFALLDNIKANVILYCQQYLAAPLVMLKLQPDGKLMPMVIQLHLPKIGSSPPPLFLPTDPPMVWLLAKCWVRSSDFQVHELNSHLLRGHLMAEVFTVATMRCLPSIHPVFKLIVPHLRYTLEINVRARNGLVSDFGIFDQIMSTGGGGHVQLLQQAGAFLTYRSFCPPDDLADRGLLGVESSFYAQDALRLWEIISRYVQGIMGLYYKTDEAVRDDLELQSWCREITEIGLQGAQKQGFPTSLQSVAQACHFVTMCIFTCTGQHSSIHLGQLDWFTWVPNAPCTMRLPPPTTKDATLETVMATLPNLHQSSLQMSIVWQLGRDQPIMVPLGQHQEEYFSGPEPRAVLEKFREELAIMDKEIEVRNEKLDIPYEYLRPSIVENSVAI
As to the kind of experiment: biochemical. The settings on record: reticulocytes. The class given is tissue-based, Reticulocytes.

Assay [2] can be described thus: DRUGMATRIX: Tumor Necrosis Factor (TNF), Non-Selective radioligand binding (ligand: [125I] TNF-alpha). Format: cell membranes, Membrane. The settings on record: u-937; Not Active = under 50% inhibition at 10 µM.
The target in assay [3] is T2, C-C chemokine receptor type 4 (Homo sapiens, UniProt P51679). Further: in other assays of this panel Not Active means under 50% inhibition at 10 µM.
T2 sequence (P51679 whole entry): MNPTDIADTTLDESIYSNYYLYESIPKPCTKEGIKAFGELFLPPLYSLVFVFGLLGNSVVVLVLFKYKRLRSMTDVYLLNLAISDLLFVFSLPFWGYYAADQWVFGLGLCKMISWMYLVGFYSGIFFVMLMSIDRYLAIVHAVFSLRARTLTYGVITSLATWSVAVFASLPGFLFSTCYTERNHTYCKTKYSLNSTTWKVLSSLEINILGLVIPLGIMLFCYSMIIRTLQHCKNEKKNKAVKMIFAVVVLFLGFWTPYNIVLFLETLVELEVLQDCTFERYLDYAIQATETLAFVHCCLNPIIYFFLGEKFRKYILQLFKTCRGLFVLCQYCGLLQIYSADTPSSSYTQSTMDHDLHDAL
Format: cell membranes, Membrane. The settings on record: chem-1.

Another assay addresses Nitric oxide synthase 1 (Rattus norvegicus, UniProt P29476). Format: tissue-based, Cerebellum.
Assay [4] can be described thus: DRUGMATRIX: Phosphodiesterase PDE3 enzyme inhibition (substrate: [3H]cAMP + cAMP). The class given is tissue-based, Homo sapiens. The settings on record: platelet; Not Active = under 50% inhibition at 10 µM.
The next assay concerns the target T3, Estrogen receptor (Homo sapiens, UniProt P03372). Further: in other assays of this panel Not Active means under 50% inhibition at 10 µM.
T3 sequence (P03372 whole entry): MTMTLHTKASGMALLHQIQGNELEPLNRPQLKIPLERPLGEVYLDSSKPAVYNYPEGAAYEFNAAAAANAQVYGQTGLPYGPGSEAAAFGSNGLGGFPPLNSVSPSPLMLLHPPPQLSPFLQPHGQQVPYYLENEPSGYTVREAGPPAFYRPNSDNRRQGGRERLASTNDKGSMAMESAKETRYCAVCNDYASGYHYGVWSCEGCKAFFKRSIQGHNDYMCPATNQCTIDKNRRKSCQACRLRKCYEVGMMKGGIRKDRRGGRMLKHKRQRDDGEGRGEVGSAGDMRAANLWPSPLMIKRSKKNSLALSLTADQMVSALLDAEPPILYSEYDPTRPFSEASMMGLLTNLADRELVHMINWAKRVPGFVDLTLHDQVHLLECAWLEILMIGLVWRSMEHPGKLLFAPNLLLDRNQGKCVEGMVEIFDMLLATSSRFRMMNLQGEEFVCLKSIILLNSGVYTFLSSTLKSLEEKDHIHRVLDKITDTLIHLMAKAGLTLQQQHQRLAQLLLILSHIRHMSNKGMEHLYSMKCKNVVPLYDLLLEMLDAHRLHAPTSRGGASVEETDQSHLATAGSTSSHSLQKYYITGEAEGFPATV
The settings on record: sf9.

In the next assay the target is D(3) dopamine receptor (Homo sapiens, UniProt P35462). In words: DRUGMATRIX: Dopamine D3 radioligand binding (ligand: [3H] Spiperone). The class given is cell membranes, CHO, Membrane. The settings on record: for IC50: cho.
Chain of D(3) dopamine receptor (P35462 whole entry): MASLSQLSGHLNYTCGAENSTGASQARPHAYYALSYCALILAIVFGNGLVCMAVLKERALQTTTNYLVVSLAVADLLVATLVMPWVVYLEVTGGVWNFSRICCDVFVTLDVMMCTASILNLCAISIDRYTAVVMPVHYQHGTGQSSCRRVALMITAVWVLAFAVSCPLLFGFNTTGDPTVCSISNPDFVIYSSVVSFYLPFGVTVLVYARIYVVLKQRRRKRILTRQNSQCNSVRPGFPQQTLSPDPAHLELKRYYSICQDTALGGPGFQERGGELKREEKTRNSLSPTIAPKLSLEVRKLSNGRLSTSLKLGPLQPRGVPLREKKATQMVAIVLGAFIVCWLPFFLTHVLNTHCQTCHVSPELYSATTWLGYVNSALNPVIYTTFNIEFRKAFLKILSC

Chain of Nitric oxide synthase 1 (P29476 whole entry): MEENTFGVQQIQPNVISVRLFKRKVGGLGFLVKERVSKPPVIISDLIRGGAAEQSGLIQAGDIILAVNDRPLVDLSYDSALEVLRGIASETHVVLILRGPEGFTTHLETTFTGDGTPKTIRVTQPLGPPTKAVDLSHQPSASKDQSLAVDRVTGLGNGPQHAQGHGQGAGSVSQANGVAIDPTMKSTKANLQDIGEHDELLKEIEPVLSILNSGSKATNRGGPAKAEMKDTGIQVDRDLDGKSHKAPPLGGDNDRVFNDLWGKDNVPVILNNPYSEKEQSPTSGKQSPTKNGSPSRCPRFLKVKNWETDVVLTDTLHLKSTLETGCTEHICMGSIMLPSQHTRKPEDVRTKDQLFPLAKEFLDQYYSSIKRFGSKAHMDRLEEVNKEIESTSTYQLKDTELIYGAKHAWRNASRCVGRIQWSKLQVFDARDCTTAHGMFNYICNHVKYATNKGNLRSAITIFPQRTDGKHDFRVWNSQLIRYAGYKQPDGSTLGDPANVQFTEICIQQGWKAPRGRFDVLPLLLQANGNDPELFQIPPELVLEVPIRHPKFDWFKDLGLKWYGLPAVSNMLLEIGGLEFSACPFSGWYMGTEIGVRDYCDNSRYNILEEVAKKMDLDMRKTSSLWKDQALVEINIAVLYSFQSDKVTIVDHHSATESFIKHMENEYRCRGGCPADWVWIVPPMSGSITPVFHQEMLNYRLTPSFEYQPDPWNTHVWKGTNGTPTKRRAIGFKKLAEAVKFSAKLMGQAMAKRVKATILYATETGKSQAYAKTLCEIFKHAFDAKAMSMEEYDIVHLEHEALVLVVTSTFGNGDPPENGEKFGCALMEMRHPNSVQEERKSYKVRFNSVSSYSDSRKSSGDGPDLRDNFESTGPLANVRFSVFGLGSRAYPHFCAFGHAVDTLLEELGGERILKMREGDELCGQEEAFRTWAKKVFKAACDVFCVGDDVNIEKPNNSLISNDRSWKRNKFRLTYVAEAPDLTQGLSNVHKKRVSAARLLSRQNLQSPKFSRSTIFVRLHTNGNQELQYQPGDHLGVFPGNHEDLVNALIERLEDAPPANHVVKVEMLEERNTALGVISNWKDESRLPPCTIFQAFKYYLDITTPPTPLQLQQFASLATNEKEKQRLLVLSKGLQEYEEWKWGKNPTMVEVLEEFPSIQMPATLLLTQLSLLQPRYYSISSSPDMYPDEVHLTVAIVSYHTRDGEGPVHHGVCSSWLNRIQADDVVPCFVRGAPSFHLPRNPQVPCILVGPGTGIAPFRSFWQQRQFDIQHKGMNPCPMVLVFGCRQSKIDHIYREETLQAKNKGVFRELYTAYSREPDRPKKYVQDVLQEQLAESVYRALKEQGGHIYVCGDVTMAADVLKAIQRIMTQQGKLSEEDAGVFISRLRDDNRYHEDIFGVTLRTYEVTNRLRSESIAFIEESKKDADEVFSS

Turning to `COc1cc(N)nc2[nH]c(-c3ccc(F)cc3)c(-c3ccncc3)c12`, the IC50 entry (in assay [1]; in assay [2]; in assay [3]; against Nitric oxide synthase 1; in assay [4]; on Estrogen receptor) was “Not Active” throughout. The IC50 result on D(3) dopamine receptor was “Not Active”. Moreover, the Ki result in assay [2] and in assay [4] was “Not Active” throughout.

For the molecule `COc1ccc(/C=C/C(=O)Nc2ccccc2C(=O)O)cc1OC`, the IC50 result (in assay [1]; in assay [2]; in assay [3]; against Nitric oxide synthase 1; in assay [4]; at Estrogen receptor) was “Not Active” in each case. The IC50 result at D(3) dopamine receptor is given as “Not Active”. The Ki entry in assay [2] and in assay [4] was “Not Active” in each case.

Consider `CCOC(N)=O`, for which the IC50 entry (in assay [1]; in assay [2]; in assay [3]; against Nitric oxide synthase 1; in assay [4]; on Estrogen receptor) was “Not Active” in each case. For the same molecule, at D(3) dopamine receptor, the IC50 entry is reported as “Not Active”. The Ki entry in assay [2] and in assay [4] was “Not Active” throughout.

As for `CC(=O)Nc1nnc(S(N)(=O)=O)s1` [ACETAZOLAMIDE], the IC50 entry (in assay [1]; in assay [3]; against Nitric oxide synthase 1; on Estrogen receptor; at D(3) dopamine receptor) was “Not Active” throughout.

For `CC1=C(CC(=O)O)c2cc(F)ccc2/C1=C\c1ccc(S(C)(=O)=O)cc1` [EXISULIND], the IC50 result (in assay [1]; in assay [2]; in assay [3]; at Nitric oxide synthase 1; in assay [4]; against Estrogen receptor) was “Not Active” throughout. Besides, at D(3) dopamine receptor, the IC50 entry was “Not Active”. The Ki result in assay [2] and in assay [4] was “Not Active” in each case.

Turning to `CC(C)OC(=O)C(C)(C)Oc1ccc(C(=O)c2ccc(Cl)cc2)cc1` [FENOFIBRATE], the IC50 result (in assay [1]; in assay [3]; at Nitric oxide synthase 1; at Estrogen receptor) was “Not Active” in each case.

`OCCN1CCN(CCCN2c3ccccc3Sc3ccc(C(F)(F)F)cc32)CC1` [FLUPHENAZINE]: the IC50 result (in assay [1]; in assay [3]; at Nitric oxide synthase 1; at Estrogen receptor) was “Not Active” throughout.

As for `CN1C2CCCC1CC(NC(=O)c1nn(C)c3ccccc13)C2` (stereo unspecified) [GRANISETRON], the IC50 entry (in assay [1]; in assay [3]; against Nitric oxide synthase 1; against Estrogen receptor; on D(3) dopamine receptor) was “Not Active” in each case.

In general, pIC50 refers to the IC50 on a negative log10 scale, so that one unit is a factor of ten. In general, pKi refers to −log10 of the Ki, conventionally taken in molar units. With `CC[C@@H](CO)NC(=O)[C@@H]1C=C2c3cccc4c3c(cn4C)C[C@H]2N(C)C1` [METHYSERGIDE], the IC50 entry (in assay [1]; in assay [3]; against Nitric oxide synthase 1; against Estrogen receptor) was “Not Active” each time. Moreover, the pIC50 on D(3) dopamine receptor (read-out: IC50) is 6.76. Also, the pKi at D(3) dopamine receptor (read-out: Ki) was 7.23.

Take `O=P(O)(O)C(O)(Cc1cccnc1)P(=O)(O)O` [RISEDRONIC ACID]: the IC50 entry (in assay [1]; in assay [2]; in assay [3]; against Nitric oxide synthase 1; in assay [4]; at Estrogen receptor) was “Not Active” throughout. In addition, at D(3) dopamine receptor, the IC50 result was “Not Active”. Moreover, the Ki result in assay [2] and in assay [4] was “Not Active” in each case.

`CN(CCOc1ccc(CC2SC(=O)NC2=O)cc1)c1ccccn1` (stereo unspecified) [ROSIGLITAZONE]: the IC50 result (in assay [1]; in assay [2]; in assay [3]; against Nitric oxide synthase 1; in assay [4]; against Estrogen receptor) was “Not Active” in each case. Moreover, at D(3) dopamine receptor, the IC50 entry was “Not Active”. Moreover, the Ki entry in assay [2] and in assay [4] was “Not Active” in each case.

Take `C#CCN(C)[C@H](C)Cc1ccccc1` [SELEGILINE]: the IC50 result (in assay [1]; in assay [2]; in assay [3]; on Nitric oxide synthase 1; in assay [4]; at Estrogen receptor) was “Not Active” each time. For the same molecule, the IC50 entry on D(3) dopamine receptor is recorded as “Not Active”. For the same molecule, the Ki result in assay [2] and in assay [4] was “Not Active” each time.

As to `CO[C@H]1C[C@@H]2CC[C@@H](C)[C@@](O)(O2)C(=O)C(=O)N2CCCC[C@H]2C(=O)O[C@H]([C@H](C)C[C@@H]2CC[C@@H](O)[C@H](OC)C2)CC(=O)[C@H](C)/C=C(\C)[C@@H](O)[C@@H](OC)C(=O)[C@H](C)C[C@H](C)/C=C/C=C/C=C/1C` [SIROLIMUS], the IC50 entry (in assay [1]; in assay [2]; in assay [3]; against Nitric oxide synthase 1; in assay [4]; at Estrogen receptor) was “Not Active” each time. For the same molecule, the IC50 entry at D(3) dopamine receptor was “Not Active”. In addition, the Ki entry in assay [2] and in assay [4] was “Not Active” each time.

On to `CN[C@@H]1[C@H](O)[C@H](NC)[C@H]2O[C@@]3(O)C(=O)C[C@@H](C)O[C@H]3O[C@@H]2[C@H]1O` [SPECTINOMYCIN], for which the IC50 result (in assay [1]; in assay [2]; in assay [3]; against Nitric oxide synthase 1; in assay [4]; on Estrogen receptor) was “Not Active” in each case. Further, the IC50 result on D(3) dopamine receptor is given as “Not Active”. Further, the Ki entry in assay [2] and in assay [4] was “Not Active” each time.

Consider `COc1ncnc(NS(=O)(=O)c2ccc(N)cc2)c1OC` [SULFADOXINE], for which the IC50 result (in assay [1]; in assay [2]; in assay [3]; on Nitric oxide synthase 1; in assay [4]; on Estrogen receptor) was “Not Active” throughout. On D(3) dopamine receptor, the IC50 entry was “Not Active”. The Ki result in assay [2] and in assay [4] was “Not Active” in each case.

Take `Nc1ccc(S(=O)(=O)Nc2nccs2)cc1` [SULFATHIAZOLE]: the IC50 result (in assay [1]; in assay [2]; in assay [3]; at Nitric oxide synthase 1; in assay [4]; at Estrogen receptor) was “Not Active” each time. Moreover, at D(3) dopamine receptor, the IC50 entry is “Not Active”. In addition, the Ki result in assay [2] and in assay [4] was “Not Active” each time.

For `C[C@]12CC[C@H]3[C@@H](CCC4=CC(=O)CC[C@@]43C)[C@@H]1CC[C@@H]2O` [TESTOSTERONE], the IC50 entry (in assay [1]; in assay [2]; in assay [3]; on Nitric oxide synthase 1; in assay [4]; on Estrogen receptor) was “Not Active” throughout. The IC50 result at D(3) dopamine receptor was “Not Active”. Besides, the Ki result in assay [2] and in assay [4] was “Not Active” each time.

`CCS(=O)(=O)CCn1c([N+](=O)[O-])cnc1C` [TINIDAZOLE]: the IC50 result (in assay [1]; in assay [2]; in assay [3]; at Nitric oxide synthase 1; in assay [4]; at Estrogen receptor) was “Not Active” each time. Also, the IC50 result at D(3) dopamine receptor was “Not Active”. Further, the Ki entry in assay [2] and in assay [4] was “Not Active” in each case.
